Measurements taken from patent EP4759807A1, “PROTEOLYSIS TARGETING CHIMERA COMPOUND FOR DEGRADING IRAK4 AND USE THEREOF” (Shenzhen Zhongge Biological Technology Co., Ltd., priority 2023, dated 2025).

What was measured:
[1] = molecular target: T1, IRAK4 (Homo sapiens, UniProt Q9NWZ3); test: Hibit fluorescence detection of proteolysis (IRAK4-HiBiT in HEK293T cells); assay type: cell-based; design: host or cells: HEK293T (ATCC); details: for Dmax: HEK-293T; for DC50: IRAK4-HiBiT, HEK293T cells, 24 h
T1 sequence (Q9NWZ3 1-460): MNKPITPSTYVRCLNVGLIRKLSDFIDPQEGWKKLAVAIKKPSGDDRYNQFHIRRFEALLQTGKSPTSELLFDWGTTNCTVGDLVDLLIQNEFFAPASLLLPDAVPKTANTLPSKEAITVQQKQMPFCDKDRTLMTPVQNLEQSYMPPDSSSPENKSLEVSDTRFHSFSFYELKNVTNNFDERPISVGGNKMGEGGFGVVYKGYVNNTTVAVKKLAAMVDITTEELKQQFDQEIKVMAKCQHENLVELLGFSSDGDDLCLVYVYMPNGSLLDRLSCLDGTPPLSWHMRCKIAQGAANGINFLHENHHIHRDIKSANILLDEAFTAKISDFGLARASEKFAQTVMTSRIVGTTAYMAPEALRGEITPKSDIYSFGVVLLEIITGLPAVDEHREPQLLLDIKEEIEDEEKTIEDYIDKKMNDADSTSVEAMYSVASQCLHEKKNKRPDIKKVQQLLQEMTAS
Method in brief: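 Degradation read-out: luminescence from lytic HiBiT detection (15 min, room temperature) after 24 h compound exposure (37 °C, 5% CO2) of HEK293T cells transiently expressing IRAK4 fused to a HiBiT tag. Data fitted to a bell-shaped four-parameter model giving two EC50 values.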

[2] = molecular target: T1, IRAK4; test: WB detection of proteolysis (Western Blot, THP-1 cells); assay type: cell-based
Procedure: The degradation level of IRAK4 in THP-1 cells was detected by Western Blot technology. […] 1000X gradient dilution stock of the compound was prepared, with the highest concentration set at 300 µM. The dilution was carried out using DMSO in a 1:3 dilution factor, yielding a total of 9 concentrations. 1000X gradient dilutions of the compound were added to a 12-well plate, with 1 µL per well. Incubation was performed under conditions of 37°C and 5% CO2 for 24 h, and the cells were collected into 2 mL of centrifuge tubes and centrifuged at 5000 rpm for 5 min, and the supernatant was removed. 100 µL of RIPA lysis buffer (Beyotime, P0013C) was added and mixed uniformly, then the cells were lysed on ice for 10 min, centrifuged at 4°C at 14000 rpm for 10 min, and the supernatant was collected. Protein content was determined with BCA (Solarbio, PC0020-10*50T). 75 µL of the supernatant was taken, and 25 µL of NuPAGE LDS Sample Buffer (4X) (Thermo B0007) was added to each tube (5% β-mercaptoethanol was added before use) to prepare samples, and the samples were boiled in a metal bath at 100°C for 5 min. […] 1x NuPAGE™ MOPS SDS electrophoresis buffer (20X) (Invitrogen, NP0001) was prepared, and the electrophoresis instrument was set to a constant current of 300 mA for 100 min, and the protein was transferred to a PVDF membrane (Millipore, IPVH00010). […] The membrane was washed three times with 1x TBST (Elabscience E-BC-R335) the next day, each time for 5 min. […] The membrane was washed three times with TBST, each time for 5 min. The Odyssey imaging system Li-cor Odyssey CLx was used to detect signals and analyze data. GraphPad (Prism 9.3) software was used to perform analysis for data, and non-linear fitting (non-liner inhibitor (Bell-shaped)) and four parameters (4 parameter) were used, and the parameters was as follows: Span1 = Plateau1−Dip [formula] Span2 = Plateau2−Dip [formula] Section1 = Span1/(1+10^(∧)((LogEC50_1−X)*nH1)) [formula] Section2 = Span2/(1+10^(∧)((X−LogEC50_2)*nH2)) [formula]
The equation was as follows: Y=Dip+Section1+Section2.

[3] = Western Blot, THP-1 cells, 24 h, read-out: DC50
[4] = Western Blot, THP-1 cells, 24 h, read-out: Dmax

SMILES | Dmax [1] | DC50 [1] | DC50 [2, 3] | Dmax [2, 4] | Dmax ([2]; THP-1) | DC50 ([2]; Western Blot, THP-1 cells, 24 h)
Cn1c(=O)n(C2CCC(=O)NC2=O)c2cccc(N3CCC(N4CCN(C[C@H]5CC[C@H](n6cc(-n7cc(-c8cnn9ccc(N%10CCOCC%10)nc89)nn7)c(C(F)F)n6)CC5)CC4)CC3)c21 (stereo partly drawn) [Example 34] | > 80% | < 0.5 nM | < 10 nM | 60 to 70% | – | –
Cn1c(=O)n(C2CCC(=O)NC2=O)c2cccc(N3CC4(CCN(C[C@H]5CC[C@H](n6cc(-n7cc(-c8ccc9cc(C(N)=O)cnn89)nn7)c(C(F)F)n6)CC5)CC4)C3)c21 (stereo partly drawn) [Example 35] | > 80% | < 0.5 nM | < 10 nM | 60 to 70% | – | –
Cn1c(=O)n(C2CCC(=O)NC2=O)c2cccc(N3CCC4(CCN(C[C@H]5CC[C@H](n6cc(-n7cc(-c8cnn9ccc(N%10CCOCC%10)nc89)nn7)c(C(F)F)n6)CC5)CC4)CC3)c21 (stereo partly drawn) [Example 36] | > 80% | < 0.5 nM | < 10 nM | 60 to 70% | – | –
Cn1c(=O)n(C2CCC(=O)NC2=O)c2cccc(N3CCC4(CCN(C[C@H]5CC[C@H](n6cc(-n7cc(-c8ccc9cc(C(N)=O)cnn89)nn7)c(C(F)F)n6)CC5)C4)CC3)c21 (stereo partly drawn) [Example 37] | > 80% | < 0.5 nM | < 10 nM | 60 to 70% | – | –
Cn1c(=O)n(C2CCC(=O)NC2=O)c2cccc(N3CCC4(CCN(C[C@H]5CC[C@H](n6cc(-n7cc(-c8cnn9ccc(N%10CCOCC%10)nc89)nn7)c(C(F)F)n6)CC5)C4)CC3)c21 (stereo partly drawn) [Example 39, 3-(4-(2-(((1r,4r)-4-(3-(difluoromethyl)-4-(4-(5-morpholinopyrazolo[1,5-a]pyrimidin-3-yl)-1H-1,2,3-triazol-1-yl)-1H-pyrazol-1-yl)cyclohexyl)methyl)-2,8-diazaspiro[4.5]dec-8-yl)-3-methyl-2-oxo-2,3-dihydro-1H-benzo[d]imidazol-1-yl)piperidine-2,6-dione] | > 80% | < 0.5 nM | < 10 nM | > 70% | – | –
Cn1c(=O)n(C2CCC(=O)NC2=O)c2cccc(N[C@H]3CC[C@@H](N(C)C[C@H]4CC[C@H](n5cc(-n6cc(-c7cnn8ccc(N9CCOCC9)nc78)nn6)c(C(F)F)n5)CC4)CC3)c21 (stereo partly drawn) [Example 54] | > 80% | < 0.5 nM | < 10 nM | 60 to 70% | – | –
Cn1c(=O)n(C2CCC(=O)NC2=O)c2cccc(N[C@H]3CC[C@H](N(C)C[C@H]4CC[C@H](n5cc(-n6cc(-c7cnn8ccc(N9CCOCC9)nc78)nn6)c(C(F)F)n5)CC4)CC3)c21 (stereo partly drawn) [Example 55, 3-(4-(((1R,4r)-4-((((1r,4R)-4-(3-(difluoromethyl)-4-(4-(5-morpholinopyrazolo[1,5-a]pyrimidin-3-yl)-1H-1,2,3-triazol-1-yl)-1H-pyrazol-1-yl)cyclohexyl)methyl)(methyl)amino)cyclohexyl)amino)-3-methyl-2-oxo-2,3-dihydro-1H-benzo[d]imidazol-1-yl)piperidine-2,6-dione] | > 80% | < 0.5 nM | – | – | < 60% | < 10 nM
C[C@H]1COCCN1c1ccn2ncc(-c3cn(-c4cn([C@H]5CC[C@H](CN6CCN(C7CCN(c8cccc9c8n(C)c(=O)n9C8CCC(=O)NC8=O)CC7)CC6)CC5)nc4C(F)F)nn3)c2n1 (stereo partly drawn) [Example 59] | 70 to 80% | < 0.5 nM | < 10 nM | > 70% | – | –
Cn1c(=O)n(C2CCC(=O)NC2=O)c2cccc(CN3CC4(CCC(CN[C@H]5CC[C@H](n6cc(-n7cc(-c8ccc9cc(C(N)=O)cnn89)nn7)c(C(F)F)n6)CC5)CC4)C3)c21 (stereo partly drawn) [Example 60] | > 80% | 1 to 5 nM | 10 to 30 nM | > 70% | – | –
Cn1c(=O)n(C2CCC(=O)NC2=O)c2cccc(N[C@H]3CC[C@H](N(C)C[C@H]4CC[C@H](n5cc(-n6cc(-c7ccc8cc(C(N)=O)cnn78)nn6)c(C(F)F)n5)CC4)CC3)c21 (stereo partly drawn) [Example 61, 7-(1-(3-(difluoromethyl)-1-((1R,4r)-4-((((1r,4R)-4-((1-(2,6-dioxopiperidin-3-yl)-3-methyl-2-oxo-2,3-dihydro-1H-benzo[d]imidazol-4-yl)amino)cyclohexyl)(methyl)amino)methyl)cyclohexyl)-1H-pyrazol-4-yl)-1H - 1,2,3-triazol-4-yl)pyrrolo[1,2-b]pyridazine-3-carboxamide] | > 80% | < 0.5 nM | < 10 nM | 60 to 70% | – | –
Cn1c(=O)n(C2CCC(=O)NC2=O)c2cccc(N3CCC4(CCN(C[C@H]5CC[C@H](n6cc(-n7cc(-c8ccc9cc(C(N)=O)cnn89)nn7)c(C(F)F)n6)CC5)CC4)C3)c21 (stereo partly drawn) [Example 62, 7-(1-(3-(difluoromethyl)-1-((1r,4r)-4-((2-(1-(2,6-dioxopiperidin-3-yl)-3-methyl-2-oxo-2,3-dihydro-1H-benzo[d]imidazol-4-yl)-2,8-diazaspiro[4.5]dec-8-yl)methyl)cyclohexyl)-1H-pyrazol-4-yl)-1H-pyrazol-1,2,3-triazol-4yl)pyrrolo[1,2-b]pyridazine-3-carboxamide] | > 80% | < 0.5 nM | < 10 nM | > 70% | – | –
Cn1c(=O)n(C2CCC(=O)NC2=O)c2cccc(N3CCC4(CC3)CN(C[C@H]3CC[C@H](n5cc(-n6cc(-c7ccc8cc(C(N)=O)cnn78)nn6)c(C(F)F)n5)CC3)C4)c21 (stereo partly drawn) [Example 64] | > 80% | < 0.5 nM | > 30 nM | 60 to 70% | – | –
Cn1c(=O)n(C2CCC(=O)NC2=O)c2cccc(C3CCN(C[C@H]4CC[C@H](n5cc(-n6cc(-c7ccc8cc(C(N)=O)cnn78)nn6)c(C(F)F)n5)CC4)CC3)c21 (stereo partly drawn) [Example 84, 7-(1-(3-(difluoromethyl)-1-((1r,4r)-4-((4-(1-(2,6-dioxopiperidin-3-yl)-3-methyl-2-oxo-2,3-dihydro-1H-benzo[d]imidazol-4-yl)piperidin-1-yl)methyl)cyclohexyl)-1H-pyrazol-4-yl)-1H-1,2,3-triazol-4-yl)pyrrolo[1,2-b]pyridazine-3-carboxamide] | > 80% | < 0.5 nM | < 10 nM | < 60% | – | –
Cn1c(=O)n(C2CCC(=O)NC2=O)c2cccc(N3CCC4(CCN(C[C@H]5CC[C@H](n6cc(-n7cc(-c8ccc9cc(C(N)=O)cnn89)nn7)c(C(F)F)n6)CC5)CC4)CC3)c21 (stereo partly drawn) [Example 85, 7-(1-(3-(difluoromethyl)-1-((1r,4r)-4-((9-(1-(2,6-dioxopiperidin-3-yl)-3-methyl-2-oxo-2,3-dihydro-1H-benzo[d]imidazol-4-yl)-3,9-diazaspiro[5.5]undecan-3-yl)methyl)cyclohexyl)-1H-pyrazol-4-yl)-1H-1,2,3-triazol-4-yl)pyrrolo[1,2-b]pyridazine-3-carboxamide] | > 80% | < 0.5 nM | < 10 nM | > 70% | – | –
C[C@H]1CN(c2cccc3c2n(C)c(=O)n3C2CCC(=O)NC2=O)CCN1C[C@H]1CC[C@H](n2cc(-n3cc(-c4ccc5cc(C(N)=O)cnn45)nn3)c(C(F)F)n2)CC1 (stereo partly drawn) [Example 96] | > 80% | < 0.5 nM | < 10 nM | > 70% | – | –
